Measured values taken from patent US20130018033A1, “RAF INHIBITOR COMPOUNDS AND METHODS OF USE THEREOF” (ARRAY BIOPHARMA INC., priority 2009, published 2013).
Like-named read-outs stand apart in the source and are kept apart here.

What was measured:
[1] = test system: basal ERK1/2 phosphorylation in Malme-3M cells; experiment: Cellular ERK 1/2 phosphorylation assay (Example A1); assay type: cell-based; details: Homo sapiens, 1 hour incubation, pERK normalized to total ERK, read-out: P-ERK Malme3-M IC50
Experimental: Inhibition of basal ERK1/2 phosphorylation was determined by the following in vitro […], which comprises incubating cells with a compound of Formula I for 1 hour and quantifying the fluorescent pERK signal on fixed cells and normalizing to total ERK signal.
Malme-3M cells were obtained from ATCC and grown in RPMI-1640 supplemented with 10% fetal bovine serum. Cells were plated in 96-well plates at 24,000 cells/well and allowed to attach for 16-20 hours at 37° C., 5% CO2. The media was removed, and DMSO-diluted compounds were added in RPMI-1640 at a final concentration of 1% DMSO. The cells were incubated with the compounds for 1 hour at 37° C., 5% CO2. The cells were washed with PBS and fixed in 3.7% formaldehyde in PBS for 15 minutes. This was followed by washing in PBS/0.05% Tween20 and permeabilizing in −20° C. 100% MeOH for 15 minutes. Cells were washed in PBS/0.05% Tween20 then blocked in Odyssey blocking buffer (LI-COR Biosciences) for 1 hour. Antibodies to phosphorylated ERK (1:400, Cell Signaling #9106, monoclonal) and total ERK (1:400, Santa Cruz Biotechnology #sc-94, polyclonal) were added to the cells and incubated 16-20 hours at 4° C. After washing with PBS/0.05% Tween20, the cells were incubated with fluorescently-labeled secondary antibodies (1:1000 goat anti-rabbit IgG-IRDye800, Rockland and 1:500 goat anti-mouse IgG-Alexa Fluor 680, Molecular Probes) for an additional hour. Cells were then washed and analyzed for fluorescence at both wavelengths using the Odyssey Infrared Imaging System (LI-COR Biosciences). Phosphorylated ERK signal was normalized to total ERK signal.

V600E full-length B-Raf = molecular target: T1, V600E full-length B-Raf (Homo sapiens, UniProt P15056, V600E); experiment: B-Raf IC50 assay (Example A); assay type: biochemical
T1 construct: 1 μM FSBA-MEK and 20 nM V600E full-length B-Raf; made in house; host or cells: Sf9 insect cells (baculovirus)
T1 sequence (P15056 whole entry V600E): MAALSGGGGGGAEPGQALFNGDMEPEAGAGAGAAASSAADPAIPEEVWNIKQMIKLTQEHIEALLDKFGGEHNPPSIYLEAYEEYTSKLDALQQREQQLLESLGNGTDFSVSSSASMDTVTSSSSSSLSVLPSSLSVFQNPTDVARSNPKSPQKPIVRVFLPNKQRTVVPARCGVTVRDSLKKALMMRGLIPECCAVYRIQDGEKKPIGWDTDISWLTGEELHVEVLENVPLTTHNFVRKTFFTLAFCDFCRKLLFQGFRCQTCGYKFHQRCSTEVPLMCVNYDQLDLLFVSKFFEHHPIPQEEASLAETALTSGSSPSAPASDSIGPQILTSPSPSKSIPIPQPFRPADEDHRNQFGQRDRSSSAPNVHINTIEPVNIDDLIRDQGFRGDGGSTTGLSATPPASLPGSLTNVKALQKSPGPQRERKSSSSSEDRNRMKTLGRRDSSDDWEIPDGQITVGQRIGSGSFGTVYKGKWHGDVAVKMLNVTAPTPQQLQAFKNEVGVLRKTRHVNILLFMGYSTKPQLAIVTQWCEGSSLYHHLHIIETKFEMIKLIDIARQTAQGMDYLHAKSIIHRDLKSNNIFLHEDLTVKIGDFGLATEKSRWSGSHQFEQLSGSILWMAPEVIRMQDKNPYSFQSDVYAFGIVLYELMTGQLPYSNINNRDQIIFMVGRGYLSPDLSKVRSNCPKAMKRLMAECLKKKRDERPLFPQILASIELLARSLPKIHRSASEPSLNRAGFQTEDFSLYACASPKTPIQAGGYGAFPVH
Source text: Determining the activity of Raf in the sample is possible by a number of direct and indirect detection methods (US 2004/0082014). Activity of human recombinant B-Raf protein may be assessed in vitro by assay of the incorporation of radio labeled phosphate to recombinant MAP kinase (MEK), a known physiologic substrate of B-Raf, according to US 2004/0127496 and WO 03/022840. The activity/inhibition of V600E full-length B-Raf was estimated by measuring the incorporation of radio labeled phosphate from [γ-^33P]ATP into FSBA-modified wild-type MEK (see Example A).
Activity of human recombinant B-Raf protein may be assessed in vitro by assay of the incorporation of radio labeled phosphate to recombinant MAP kinase (MEK), a known physiologic substrate of B-Raf, according to US 2004/0127496 and WO 03/022840. Catalytically active human recombinant B-Raf protein is obtained by purification from sf9 insect cells infected with a human B-Raf recombinant baculovirus expression vector.
The activity/inhibition of V600E full-length B-Raf was estimated by measuring the incorporation of radio labeled phosphate from [γ-^33P]ATP into FSBA-modified wild-type MEK. The 30-μL assay mixtures contained 25 mM Na Pipes, pH 7.2, 100 mM KCl, 10 mM MgCl2, 5 mM β-glycerophosphate, […], 4 μM ATP, 500 nCi [γ-^33P]ATP, 1 μM FSBA-MEK and 20 nM V600E full-length B-Raf. Incubations were carried out at 22° C. in a Costar 3365 plate (Corning). Prior to the assay, the B-Raf and FSBA-MEK were preincubated together in assay buffer at 1.5×(20 μL of 30 nM and 1.5 μM, respectively) for 15 minutes, and the assay was initiated by the addition of 10 μL of 10 μM ATP. Following the 60-minute incubation, the assay mixtures were quenched by the addition of 100 μL of 25% TCA, the plate was mixed on a rotary shaker for 1 minute, and the product was captured on a Perkin-Elmer GF/B filter plate using a Tomtec Mach III Harvester. After sealing the bottom of the plate, 35 μL of Bio-Safe II (Research Products International) scintillation cocktail were added to each well and the plate was top-sealed and counted in a Topcount NXT (Packard).

[2] = B-Raf V600E assay of Example A, read-out: IC50
[3] = [γ-33P]ATP incorporation into FSBA-MEK, 4 μM ATP, read-out: BRAF V600E IC50

Row | Compound | IC50 [1] [nM] | IC50 (V600E full-length B-Raf; [2]) [nM] | IC50 (V600E full-length B-Raf; [3]) [nM]
1 | Nc1ncnc2c(C(=O)Nc3c(F)ccc(NS(=O)(=O)CCCF)c3Cl)cccc12 [Example 24, 4-Amino-quinazoline-8-carboxylic acid [2-chloro-6-fluoro-3-(3-fluoro-propane-1-sulfonylamino)-phenyl]-amide] | 4.05 | < 100 | 0.14
2 | Nc1ncnc2c(C(=O)Nc3c(Cl)ccc(NS(=O)(=O)CCCF)c3F)cccc12 [Example 25, 4-Amino-quinazoline-8-carboxylic acid [6-chloro-2-fluoro-3-(3-fluoro-propane-1-sulfonylamino)-phenyl]-amide] | 2.21 | < 100 | 0.09
3 | Nc1ncnc2c(C(=O)Nc3c(F)c(F)cc(NS(=O)(=O)CCCF)c3F)cccc12 [Example 26, 4-Amino-quinazoline-8-carboxylic acid [2,3,6-trifluoro-5-(3-fluoro-propane-1-sulfonylamino)-phenyl]-amide] | 10.8 | < 100 | 0.31
4 | Nc1ncnc2c(C(=O)Nc3c(Cl)ccc(NS(=O)(=O)CCCF)c3Cl)cccc12 [Example 27, 4-Amino-quinazoline-8-carboxylic acid [2,6-dichloro-3-(3-fluoro-propane-1-sulfonylamino)-phenyl]-amide] | 4.07 | < 100 | 0.08
5 | CCCS(=O)(=O)Nc1ccc(Cl)c(NC(=O)c2cccc3c(N)ncnc23)c1C#N [Example 29, 4-Amino-quinazoline-8-carboxylic acid [6-chloro-2-cyano-3-(propane-1-sulfonylamino)-phenyl]-amide] | 25.3 | < 100 | 0.08
6 | CCCS(=O)(=O)Nc1cccc(NC(=O)c2cccc3c(N)ncnc23)c1C#N [Example 30, 4-Amino-quinazoline-8-carboxylic acid [2-cyano-3-(propane-1-sulfonylamino)-phenyl]-amide] | 7.1 | < 100 | 0.08
7 | C#Cc1c(NS(=O)(=O)CCC)ccc(Cl)c1NC(=O)c1cccc2c(N)ncnc12 [Example 31, 4-Amino-quinazoline-8-carboxylic acid [6-chloro-2-ethynyl-3-(propane-1-sulfonylamino)-phenyl]-amide] | 42 | < 100 | 0.4
8 | Nc1ncnc2c(C(=O)Nc3c(F)ccc(NS(=O)(=O)c4ccccc4)c3F)cccc12 [Example 32, 4-Amino-quinazoline-8-carboxylic acid (3-benzenesulfonylamino-2,6-difluoro-phenyl)-amide] | 17.7 | < 100 | 0.38
9 | Nc1ncnc2c(C(=O)Nc3c(F)ccc(NS(=O)(=O)c4ccco4)c3F)cccc12 [Example 33, 4-Amino-quinazoline-8-carboxylic acid [2,6-difluoro-3-(furan-2-sulfonylamino)-phenyl]-amide] | 12.5 | < 100 | 0.17
10 | Nc1ncnc2c(C(=O)Nc3c(F)ccc(NS(=O)(=O)N4CCCC4)c3F)cccc12 [Example 34, 4-Amino-quinazoline-8-carboxylic acid [2,6-difluoro-3-(pyrrolidine-1-sulfonylamino)-phenyl]-amide] | 15.6 | < 100 | 12.7
11 | N#Cc1c(NS(=O)(=O)N2CCCC2)ccc(F)c1NC(=O)c1cccc2c(N)ncnc12 [Example 35, 4-Amino-quinazoline-8-carboxylic acid [2-cyano-6-fluoro-3-(pyrrolidine-1-sulfonylamino)-phenyl]-amide] | 7.48 | < 100 | 0.16
12 | CN(C)S(=O)(=O)Nc1ccc(F)c(NC(=O)c2cccc3c(N)ncnc23)c1F [Example 36, 4-Amino-N-(3-(N,N-dimethylsulfamoylamino)-2,6-difluorophenyl)quinazoline-8-carboxamide] | 25.2 | < 100 | 14.8
13 | CCN(C)S(=O)(=O)Nc1ccc(F)c(NC(=O)c2cccc3c(N)ncnc23)c1Cl [Example 37, 4-Amino-N-(2-chloro-3-(N-ethyl-N-methylsulfamoylamino)-6-fluorophenyl)quinazoline-8-carboxamide] | 39.7 | < 100 | 21.5
14 | CN(C)S(=O)(=O)Nc1ccc(Cl)c(NC(=O)c2cccc3c(N)ncnc23)c1F [Example 38, 4-Amino-N-(6-chloro-3-(N,N-dimethylsulfamoylamino)-2-fluorophenyl)quinazoline-8-carboxamide] | 28 | < 100 | 7.01
15 | CN(C)S(=O)(=O)Nc1ccc(F)c(NC(=O)c2cccc3c(N)ncnc23)c1Cl [Example 39, 4-Amino-N-(2-chloro-3-(N,N-dimethylsulfamoylamino)-6-fluorophenyl)quinazoline-8-carboxamide] | 32.7 | < 100 | 7.5
16 | CCCS(=O)(=O)Nc1ccc(F)c(NC(=O)c2cc(C#CCO)cc3c(N)ncnc23)c1F [Example 40, 4-Amino-6-(3-hydroxy-prop-1-ynyl)-quinazoline-8-carboxylic acid [2,6-difluoro-3-(propane-1-sulfonylamino)-phenyl]-amide] | 158 | < 100 | 2.2
17 | CCCS(=O)(=O)Nc1cc(F)c(F)c(NC(=O)c2cccc3c(NCCF)ncnc23)c1F [Example 43, 4-(2-Fluoro-ethylamino)-quinazoline-8-carboxylic acid [2,3,6-trifluoro-5-(propane-1-sulfonylamino)-phenyl]-amide] | 2910 | < 1000 | 293
18 | CCCS(=O)(=O)Nc1cc(F)c(F)c(NC(=O)c2cccc3c(NN4CCOCC4)ncnc23)c1F [Example 47, 4-(Morpholin-4-ylamino)-quinazoline-8-carboxylic acid [2,3,6-trifluoro-5-(propane-1-sulfonylamino)-phenyl]-amide] | 1170 | < 1000 | 105
19 | O=C(Nc1c(F)c(F)cc(NS(=O)(=O)CCCF)c1F)c1cccc2c(NC3CC3)ncnc12 [Example 51, 4-(Cyclopropylamino)-N-(2,3,6-trifluoro-5-(3-fluoropropylsulfonamido)phenyl)quinazoline-8-carboxamide] | 2310 | < 1000 | 143
20 | CCNc1ncnc2c(C(=O)Nc3c(F)c(F)cc(NS(=O)(=O)CCCF)c3F)cccc12 [Example 52, 4-Ethylamino-quinazoline-8-carboxylic acid [2,3,6-trifluoro-5-(3-fluoro-propane-1-sulfonylamino)-phenyl]-amide] | 5290 | < 1000 | 290
21 | CCCS(=O)(=O)Nc1ccc(F)c(NC(=O)c2cccc3cncnc23)c1F [Example 54, Quinazoline-8-carboxylic acid [2,6-difluoro-3-(propane-1-sulfonylamino)-phenyl]amide] | 526 | < 1000 | 119
22 | O=C(Nc1c(F)ccc(NS(=O)(=O)CCCF)c1F)c1cccc2cncnc12 [Example 55, Quinazoline-8-carboxylic acid [2,6-difluoro-3-(3-fluoro-propane-1-sulfonylamino)-phenyl]-amide] | 92.8 | < 100 | 32.2
